Data set [1] has as its system microbial purine nucleoside phosphorylase. To be noted: Doskocil and Holy 1977; cited from earlier work.
The nature of data set [2]: Analgesic activity. The following applies: in vivo.
Data set [3] is described as follows: Side effects / liver damage in animal models. The following applies: in vivo.
The subject of data set [4] is carrageenan pleurisy (3 hour exudate volume). Nature of the data set: Carrageenan Pleurisy Assay (CPA), acute anti-inflammatory activity. The data set is classed as in vivo. To be noted: statement in words. The procedure:
Following the procedure described by Vinegar et al in Proc. Soc. Exp. Biol. Med.,143, 711, (1973), and recently modified (Vinegar et al., Eur. J. Rheum. Inflam. 1, 204 (1978)) the acute anti-inflammatory activity of 4-amino-1-(2-deoxy-β-D-ribofuranosyl)-1H-imidazo-[4,5-c]-pyridine was compared with that of known anti-inflammatory drugs. The average 3 hour exudate volume for each drug-treated group was determined and the % inhibition relative to solvent-fed control animals calculated, the ED50 (mg/kg of body weight) being the dose required to reduce the 3 hour exudate volume by 50%. There were 5 animals in each drug-treated group and the control group.

For data set [5], the system named is mouse neutrophil chemotaxis. Nature of the data set: Mouse neutrophil chemotaxis. The data set is classed as cell-based.
Data set [6] has as its system inflammation. The data set can be described thus: Anti-inflammatory effectiveness by route. Format: in vivo. To be noted: orally, systemically and locally.

Data on four compounds can be found in US4481197A, “Anti-inflammatory deoxyribosides” (Burroughs Wellcome Co., priority 1982, dated 1984).

Regarding `Nc1ncnc2c1ccn2[C@@H]1O[C@H](CO)[C@@H](O)[C@H]1O` [7-deazaadenosine], in data set [1], the “substrate for microbial purine nucleoside phosphorylase” value (shortened to “substrate”) is “not to be substrates”.

Regarding `Nc1nc2c(nnn2[C@@H]2O[C@H](CO)[C@@H](O)[C@H]2O)c(=O)[nH]1` [S-azaguanosine], the “substrate” value in data set [1] was “not to be substrates”.

For the compound `Nc1nccc2c1ncn2[C@H]1C[C@H](O)[C@@H](CO)O1` [4-amino-1-(2-deoxy-β-D-ribofuranosyl)-1H-imidazo-[4,5-c]-pyridine], in data set [2], the “analgesic activity per se” value is “no analgesic activity per se”. Also, in data set [3], the “side effects associated with prostaglandin inhibitors (gastric damage, inhibition of platelet aggregation)” value is “free of the side effects” and the “side effects of the anti-inflammatory steroids” value was “free of the side effects”. Further, the “inhibition of carrageenan-induced pleurisy” value in data set [4] is on record as “potent inhibitor”. Further, the “inhibition of mouse neutrophil chemotaxis” value in data set [5] is listed as “potent inhibitor”. Further, the “effectiveness as anti-inflammatory agent” value in data set [6] is recorded as “effective”.

Regarding `OC[C@H]1O[C@@H](n2ccc3c(O)ncnc32)[C@H](O)[C@@H]1O` [7-deazainosine], in data set [1], the “substrate” value was “not to be substrates”.
